# Assays:
# [1] = Serum concentration by HPLC in dogs after oral dosing; format: in vivo, dog; conditions: dogs
# Protocol: (§1) Dog serum concentrations of Compound-1, Compound-1F and Compound-4 were determined with serum isolated from the blood of German shepherd dogs (age: 8-9 months) taken at different time points (2 h, 4 h, 6 h, 8, 10 h, 24 h) after oral drug intake. The steady-state serum concentrations of Compound-1, Compound-1F and Compound-4 were determined in mice with blood isolated at the end of the study by cardiac puncture. Serum proteins were removed by acetonitrile precipitation, and compounds were extracted by chloroform before separation on an HPLC-C18 column (Poroshell 120 EC-C18, Agilent) with an HPLC system (Agilent 1100 Series) and detection at OD 280 nm, for Compound-1 and Compound-1F. Detection of Compound-4 was performed at OD 310 nm. The same extraction method was also used to determine Compound-1F in the serum of healthy human research participants. Dog hematology and biochemical parameters were determined by the Center of Applied Analytical and Veterinary Studies, Cairo, Egypt. ECG and blood pressure were measured by Dr. Mohamed Elsaed, Electrocardiography Unit, Faculty of Veterinary Medicine, Cairo University. The study was approved by the ethical committee of the Center of Applied and Veterinary Studies, Cairo, Egypt. Clinical laboratory parameters of human research participants were determined by the Rabaa El Adaweya Medical Central Hospital, Cairo, Egypt.
# [2] = 28-day repeated oral dosing safety in German shepherd dogs; format: in vivo, dog; conditions: dogs
# Protocol: as §1
# [3] = repeated oral dosing 28 days, 200 mg daily
smiles,measurement,setting,value
"c1cc(-c2ccc3c(c2)OCO3)ncn1 [Compound-4, 4-(1,3-benzodioxol-5-yl)pyrimidine]",dose dependence of peak serum levels at 2 h after drug intake,"[1]; doses of 120 mg, 200 mg and 300 mg, 28 days",dose-dependent increase
same,oral bioavailability,[1]; oral treatment,good oral bioavailability
same,serum concentration at t=8 h after intake,[1]; [3],undetectable
same,time to peak serum level after drug intake,[1]; [3],2 h
same,peak serum concentration,"[1]; repeated oral dosing 28 days, daily dose of 200 mg",0.56 ± 0.10 µg/mL
same,blood pressure and heart rate before vs after drug intake,[2]; 28 days,not different
same,clinical laboratory parameters,"[2]; 28 days at 120, 200 and 300 mg per day",within the normal range
same,tolerability,[2]; therapeutic dose range,excellent tolerability
